The record followed here is US10227362B2 (priority 2015, dated 2019).

In brackets after ≈: the same amount, converted by molar mass.

Assay type in all cases: cell-based
In test [1] the test system is Mycobacterium tuberculosis H37Rv strain. The experiment in a line: In vitro MIC against M. tuberculosis H37Rv strain (MABA, Alamar Blue). As to the method: Part I: The in vitro efficacy of anti-Mycobacterium tuberculosis compounds was tested using H37Rv strain.
On the day of the test, the compound was dissolved in pure DMSO (Sigma 276855-2L) to a concentration of 10 mg/mL which was used as the mother liquor of the compound. 30 μL of DMSO was added to wells of column 2 to 11 s of the v-bottom 96-well plates (Axygen-wipp02280). 30 μL of the mother liquor of the compound was added to the well of column 2, after mixing, 30 μL was taken from the well of column 2 and added to the well of column 3, and then pipetted and mixed. The operation was taken to column 10. Column 11 was free of medicine and contained only 30 μL of DMSO. This was the “motherplate” of the compound. From column 2 to 11, the corresponding concentration of the compound was 5, 2.5, 1.25, 0.625, 0.3125, 0.156, 0.078, 0.039, 0.02, 0 mg/mL. […] A flat bottom 96-well plate (Greiner 655090) was used as a “daughterplate”. 98 μL of 7H9 (Sigma M0178) medium was added to the wells of all daughterplates. 2 μL of compound was extracted from the motherboard and added to the corresponding daughter plate. Line A and H, column 1 and 12 of the daughterplate contained only 7H9 medium.
The H37Rv strain in the glycerol cryovial was inoculated into 7H9 medium containing 0.05% Tween 80 and cultured for 4 weeks at 37° C. in a shaker with 200 rpm. The bacterial liquid was washed twice with 7H9 medium containing 0.05% Tween 80 and resuspended in the same medium. The absorbance of the bacteria liquid was adjusted to OD550=0.4-0.5 using the same medium. The bacteria liquid was sub-packed in microcentrifuge tubes and stored at −80° C. Storage time was no more than 1 month. On the day of the test, the packaged bacteria liquid would be […]. The bacteria liquid was diluted 20 times and then diluted 50 times with 7H9 medium, and a total of 1000 times dilution. The bacteria liquid would be used to inoculate on the daughterplate. 100 μL of bacterial liquid was inoculated in each well of the daughterboard, 100 μL 7H9 medium was added to column 12 and without bacteria liquid.
The test daughterplate was placed in an incubator at 37° C. and the humidity was maintained at >80%. A week later, 12.5 μL of 7H9 medium containing 20% Tween 80 and 20 μL of Alamar Blue (Invitrogen DAL1100) were added to the well of a column 1 containing bacteria and the well of a column 12 without bacteria every day, and then continue to incubate for 24 hours and observed. When the added Alamar Blue was reduced to pink in 24 hours by the bacteria liquid in the well of column 1, the 7H9 medium containing 20% Tween 80 and Alamar Blue were added to all wells on the test plate and the fluorescence values were measured after incubation for 24 hours at 37° C.
On the technique in general: Alamar Blue is a resazurin reagent that responds to reducing activity.

The test system of test [2] is Mycobacterium bovis BCG strain TMC1019 (ATCC35737). The experiment in a line: microbe, parasite or virus in culture. The conditions noted are these: Mycobacterium tuberculosis variant bovis BCG, 24 h, read-out: M. bovis ATCC35737 (ug/mL).
In test [3] the test system is Vero Cell. The experiment in a line: Vero cell cytotoxicity. Particulars: Chlorocebus sabaeus, Vero cells.
Test [4] relates to M. tuberculosis H37R. Briefly: M. tuberculosis LORA MIC. The conditions noted are these: Mycobacterium tuberculosis, read-out: M. tuberculosis H37R LORA (MIC) (ug/mL).

As for `C[C@]1(CN2CCc3nc(-c4cc(F)cc(F)c4)ccc3C2)Cn2cc([N+](=O)[O-])nc2O1` [Compound 14, (S)-2-((2-(3,5-Difluorophenyl)-7,8-dihydro-1,6-naphthyridin-6(5H)-yl)methyl)-2-methyl-6-nitro-2,3-dihydroimidazo[2,1-b]oxazole], the MIC in test [1] is less than 1 µg/mL; in test [2], less than 1 µg/mL; in test [4], 1 to 32 µg/mL (≈ 2.34 to 74.9 µM). Further, the IC50 (in general, the concentration at which inhibition is half-maximal) in test [3] was more than 32 µg/mL.

Consider `C[C@]1(CN2CCc3nc(-c4ccc(Cl)c(F)c4)ccc3C2)Cn2cc([N+](=O)[O-])nc2O1` [Compound 20, (S)-2-((2-(4-Chloro-3-fluorophenyl)-7,8-dihydro-1,6-naphthyridin-6(5H)-yl)methyl)-2-methyl-6-nitro-2,3-dihydroimidazo[2,1-b]oxazole], for which the MIC in test [1] is less than 1 µg/mL; in test [2], less than 1 µg/mL; in test [4], 1 to 32 µg/mL (≈ 2.25 to 72.1 µM). Besides, the concentration for half-maximal inhibition (IC50) in test [3] was more than 32 µg/mL.

Take `C[C@]1(CN2CCc3nc(-c4ccco4)ccc3C2)Cn2cc([N+](=O)[O-])nc2O1` [Compound 25, (S)-2-((2-(Furan-2-yl)-7,8-dihydro-1,6-naphthyridin-6(5H)-yl)methyl)-2-methyl-6-nitro-2,3-dihydroimidazo[2,1-b]oxazole]: the values for the MIC in test [1], in test [2] and in test [4] were less than 1 µg/mL, less than 1 µg/mL and 1 to 32 µg/mL (≈ 2.62 to 83.9 µM), respectively. The compound also had an IC50 in test [3] of more than 32 µg/mL.

Consider `C[C@]1(CN2CCc3nc(-c4ccc(F)cc4)oc3C2)Cn2cc([N+](=O)[O-])nc2O1` [Compound 61, (S)-2-(4-Fluorophenyl)-5-((2-methyl-6-nitro-2,3-dihydroimidazo[2,1-b]oxazol-2-yl)methyl)-4,5,6,7-tetrahydrooxazolo[5,4-c]pyridine], for which the MIC was less than 1 µg/mL in test [1], less than 1 µg/mL in test [2] and 1 to 32 µg/mL (≈ 2.5 to 80.1 µM) in test [4]. Also, in test [3], the 50% inhibitory concentration (IC50) is more than 32 µg/mL.

On to `C[C@]1(CN2CCCc3nc(-c4ccc(F)cc4)ccc3C2)Cn2cc([N+](=O)[O-])nc2O1` [Compound 96, (S)-2-((2-(4-Fluorophenyl)-8,9-dihydro-5H-pyrido[3,2-c]azepin-6(7H)-yl)methyl)-2-methyl-6-nitro-2,3-dihydroimidazo[2,1-b]oxazole], for which the MIC is less than 1 µg/mL in test [1], less than 1 µg/mL in test [2] and 1 to 32 µg/mL (≈ 2.36 to 75.6 µM) in test [4]. The same compound had an IC50 in test [3] of more than 32 µg/mL.
